The values below are quoted from earlier work in patent publication US8491930B2, “Pharmaceutical formulation containing ibuprofen and codeine” (Farmasierra Manufacturing, S.L., priority 2008, dated 2013).

For the molecule `COc1ccc2c3c1OC1C(O)C=C[C@H]4[C@@H](C2)N(C)CC[C@]314` (stereo partly shown) [Codeine phosphate, 7,8-didehydro-4,5-epoxy-3-methoxy-17-methyl-morphinan-6-ol], the Solubility in water result was “soluble in water”.
